CCCCN(CCCC)c1ccc(C(=O)c2ccccc2C(=O)O)c(O)c1
solubility (mole fraction)
Settings | 283.15 K | 288.15 K | 293.15 K | 298.15 K | 303.15 K | 308.15 K | 313.15 K | 318.15 K | 323.15 K
in acetone | 0.015 | 0.0171 | 0.0196 | 0.0216 | 0.0251 | 0.0291 | 0.033 | 0.0386 | 0.0436
in acetonitrile | 0.000701 | 0.000848 | 0.00113 | 0.00138 | 0.0018 | 0.00227 | 0.00284 | 0.00363 | 0.00444
in dichloromethane | 0.0128 | 0.0141 | 0.0157 | 0.0183 | 0.0214 | 0.0251 | – | – | –
in ethanol | 0.00193 | 0.00252 | 0.00334 | 0.00422 | 0.00529 | 0.00641 | 0.0082 | 0.0102 | 0.013
in ethyl acetate | 0.0043 | 0.00516 | 0.00606 | 0.00698 | 0.00782 | 0.009 | 0.00995 | 0.0112 | 0.0126
in isopropanol | 0.00178 | 0.00232 | 0.00302 | 0.0039 | 0.00508 | 0.00667 | 0.00886 | 0.0117 | 0.0147
in isopropyl acetate | 0.00415 | 0.00485 | 0.00544 | 0.00624 | 0.00715 | 0.00815 | 0.00901 | 0.00991 | 0.011
in methanol | 0.00164 | 0.00194 | 0.00238 | 0.00292 | 0.0037 | 0.0047 | 0.00617 | 0.00811 | 0.0111
in n-butyl acetate | 0.00418 | 0.00493 | 0.00556 | 0.00639 | 0.00727 | 0.00824 | 0.00952 | 0.0109 | 0.0123
in n-heptane | 1.5e-05 | 1.8e-05 | 2.3e-05 | 2.7e-05 | 3.3e-05 | 3.8e-05 | 4.3e-05 | 4.8e-05 | 5.2e-05
in n-propanol | 0.0165 | 0.0212 | 0.0258 | 0.0321 | 0.0399 | 0.0496 | 0.062 | 0.0773 | 0.0958
in n-propyl acetate | 0.0037 | 0.00454 | 0.00547 | 0.00631 | 0.00738 | 0.00846 | 0.00983 | 0.0115 | 0.0129

Reference: BigSolDB 2.1
